Assay results from patent US9382218B2, “N-heteroaryl substituted aniline derivatives as HCV-antivirals” (priority 2013, dated 2016).

Tests used:
Assay in all cases: microbe, parasite or virus in culture
[1] = system: VSVpp (pseudotyped VSV G particles); assay type: cell-based; details: Vesicular stomatitis virus, 72 h, read-out: VSVpp (EC50, M)
[2] = system: HCVpp GT-1a (pseudotyped HCV particles, E1/E2 of GT1a H77 strain); assay type: cell-based, Hepatitis C virus GT1a H77 strain; details: Hepatitis C virus, 72 h, read-out: HCVpp GT-1a (EC50, M)
[3] = system: HCVpp GT-1b (pseudotyped HCV particles, E1/E2 of GT1b Con1 strain); assay type: cell-based, Hepatitis C virus GT1b Con1 strain; details: Hepatitis C virus, 72 h, read-out: HCVpp GT-1b (EC50, M)

Compound	EC50 [1]	EC50 [2]	EC50 [3]
Nc1cc(Nc2cc(Cl)cc(Cl)c2)[nH]n1 [Compound 1, N^5-(3,5-Dichloro-phenyl)-1H-pyrazole-3,5-diamine]	≥ 0.0001 M	3.99e-05 M	6.4e-05 M
Nc1cc(Nc2cc(Cl)c(F)c(Cl)c2)[nH]n1 [Compound 2, N^5-(3,5-Dichloro-4-fluoro-phenyl)-1H-pyrazole-3,5-diamine]	3.4e-05 M		5.22e-05 M
Cc1nnc(Nc2cc(Cl)cc(Cl)c2)o1 [Compound 3, (3,5-Dichloro-phenyl)-(5-methyl-[1,3,4]oxadiazol-2-yl)-amine]	≥ 0.0001 M	3.93e-05 M	3.58e-05 M
Nc1nc(Nc2cccc(C(F)(F)F)c2)no1 [Compound 4, N^3-(3-Trifluoromethyl-phenyl)-[1,2,4]oxadiazole-3,5-diamine]	> 0.0001 M	1.36e-06 M	6.06e-06 M
Nc1noc(Nc2cc(Cl)cc(Cl)c2)n1 [Compound 5, N^5-(3,5-Dichloro-phenyl)-[1,2,4]oxadiazole-3,5-diamine]	9.8e-06 M	8.63e-06 M	9.22e-06 M
Nc1nc(Nc2cc(Cl)cc(Cl)c2)no1 [Compound 6, N^3-(3,5-Dichloro-phenyl)-[1,2,4]oxadiazole-3,5-diamine]	8.6e-05 M	3.55e-06 M	1.03e-05 M
Nc1nc(Nc2cc(Cl)cc(C(F)(F)F)c2)no1 [Compound 8, N^3-(3-Chloro-5-trifluoromethyl-phenyl)-[1,2,4]oxadiazole-3,5-diamine]	≥ 0.0001 M		9.03e-06 M
CS(=O)(=O)Nc1cccc(-c2c(Cl)cc(Nc3nc(N)no3)cc2C(F)(F)F)c1 [Compound 9, N-[4′-(3-Amino-[1,2,4]oxadiazol-5-ylamino)-6′-chloro-2′-trifluoromethyl-biphenyl-3-yl]-methanesulfonamide]	7.04e-06 M		2.99e-06 M
CS(=O)(=O)Nc1cccc(-c2c(Cl)cc(Nc3noc(N)n3)cc2C(F)(F)F)c1 [Compound 10, N-[4′-(5-Amino-[1,2,4]oxadiazol-3-ylamino)-6′-chloro-2′-trifluoromethyl-biphenyl-3-yl]-methanesulfonamide]	9.87e-06 M		1.53e-06 M
Nc1cnc(Nc2cc(Cl)cc(Cl)c2)o1 [Compound 11, N^2-(3,5-Dichloro-phenyl)-oxazole-2,5-diamine]	≥ 0.0001 M	2.93e-05 M	
